According to the NIST ThermoML archive (doi:10.1021/acs.jced.7b00712):
Numbers after ± are expanded uncertainties.

Conditions: Brillouin light scattering

CCCCCCCC [octane]
Conditions	speed of sound [m/s]
573.03 K, 7000 kPa, Liquid	341 ± 5
573.05 K, 4000 kPa, Fluid (supercritical or subcritical phases)	228.1 ± 6.4
573.37 K, 10000 kPa, Liquid	414 ± 5.7
573.6 K, 12000 kPa, Liquid	454.4 ± 6.1
573.69 K, 3500 kPa, Fluid (supercritical or subcritical phases)	189 ± 7.6
573.8 K, 3000 kPa, Fluid (supercritical or subcritical phases)	135.4 ± 8.6
573.9 K, 4500 kPa, Fluid (supercritical or subcritical phases)	250.4 ± 5.2
575.02 K, 4000 kPa, Fluid (supercritical or subcritical phases)	217.1 ± 5.2
575.57 K, 7000 kPa, Liquid	332.6 ± 4.9
576.28 K, 10000 kPa, Liquid	408.7 ± 5.7
576.53 K, 12000 kPa, Liquid	451.3 ± 6.1
577.56 K, 3000 kPa, Fluid (supercritical or subcritical phases)	110.1 ± 9.4
577.56 K, 4500 kPa, Fluid (supercritical or subcritical phases)	236.5 ± 6.1
577.86 K, 3500 kPa, Fluid (supercritical or subcritical phases)	168.5 ± 6.8
578.92 K, 7000 kPa, Liquid	323.1 ± 4.7
579.05 K, 4000 kPa, Fluid (supercritical or subcritical phases)	198.3 ± 6.3
579.36 K, 10000 kPa, Liquid	400.8 ± 5.6
579.57 K, 12000 kPa, Liquid	444.1 ± 6
582.19 K, 3000 kPa, Fluid (supercritical or subcritical phases)	86.9 ± 8.4
582.61 K, 3500 kPa, Fluid (supercritical or subcritical phases)	144.9 ± 7.1
583.28 K, 4500 kPa, Fluid (supercritical or subcritical phases)	215.8 ± 5.5
583.76 K, 4000 kPa, Fluid (supercritical or subcritical phases)	181 ± 5.8
584.07 K, 5000 kPa, Fluid (supercritical or subcritical phases)	239.2 ± 4.8
584.52 K, 6000 kPa, Fluid (supercritical or subcritical phases)	280.5 ± 4.8
584.97 K, 7000 kPa, Fluid (supercritical or subcritical phases)	314.5 ± 5
585.27 K, 8000 kPa, Fluid (supercritical or subcritical phases)	351.8 ± 5.1
585.51 K, 9000 kPa, Fluid (supercritical or subcritical phases)	367.9 ± 5.1
585.79 K, 10000 kPa, Fluid (supercritical or subcritical phases)	392.1 ± 5.5
585.88 K, 3000 kPa, Fluid (supercritical or subcritical phases)	88.4 ± 5.5
586.85 K, 3500 kPa, Fluid (supercritical or subcritical phases)	124.2 ± 6.6
587.72 K, 4500 kPa, Fluid (supercritical or subcritical phases)	200.5 ± 5.6
588.01 K, 4000 kPa, Fluid (supercritical or subcritical phases)	166.2 ± 5.9
588.39 K, 5000 kPa, Fluid (supercritical or subcritical phases)	226.1 ± 4.9
588.83 K, 6000 kPa, Fluid (supercritical or subcritical phases)	270.2 ± 4.7
589.14 K, 7000 kPa, Fluid (supercritical or subcritical phases)	302.3 ± 4.8
589.41 K, 8000 kPa, Fluid (supercritical or subcritical phases)	337 ± 5
589.67 K, 9000 kPa, Fluid (supercritical or subcritical phases)	358.4 ± 5.1
589.68 K, 3000 kPa, Fluid (supercritical or subcritical phases)	93.7 ± 2.3
589.93 K, 10000 kPa, Fluid (supercritical or subcritical phases)	385.1 ± 5.4
591.09 K, 3500 kPa, Fluid (supercritical or subcritical phases)	108.6 ± 5.7
591.69 K, 4500 kPa, Fluid (supercritical or subcritical phases)	186.7 ± 4.7
593.97 K, 5000 kPa, Fluid (supercritical or subcritical phases)	206.7 ± 5.3
594.05 K, 4000 kPa, Fluid (supercritical or subcritical phases)	140.2 ± 5.5
594.09 K, 6000 kPa, Fluid (supercritical or subcritical phases)	255.1 ± 4.8
594.28 K, 7000 kPa, Fluid (supercritical or subcritical phases)	290.8 ± 4.7
594.52 K, 8000 kPa, Fluid (supercritical or subcritical phases)	322.3 ± 4.8
594.74 K, 9000 kPa, Fluid (supercritical or subcritical phases)	346.5 ± 5
594.9 K, 3000 kPa, Fluid (supercritical or subcritical phases)	102.1 ± 1.4
594.94 K, 10000 kPa, Fluid (supercritical or subcritical phases)	374.1 ± 5.3
596.02 K, 3500 kPa, Fluid (supercritical or subcritical phases)	100.7 ± 4.5
597.28 K, 4500 kPa, Fluid (supercritical or subcritical phases)	170.5 ± 5
598.63 K, 4000 kPa, Fluid (supercritical or subcritical phases)	125.5 ± 5.4
599.12 K, 3000 kPa, Fluid (supercritical or subcritical phases)	108.9 ± 2.6
599.17 K, 5000 kPa, Fluid (supercritical or subcritical phases)	192.7 ± 4.8
599.18 K, 6000 kPa, Fluid (supercritical or subcritical phases)	241.2 ± 4.6
599.55 K, 7000 kPa, Fluid (supercritical or subcritical phases)	276.6 ± 4.6
599.72 K, 8000 kPa, Fluid (supercritical or subcritical phases)	309.6 ± 4.7
599.76 K, 3500 kPa, Fluid (supercritical or subcritical phases)	95.6 ± 3.6
600 K, 9000 kPa, Fluid (supercritical or subcritical phases)	334 ± 4.8
601 K, 10000 kPa, Fluid (supercritical or subcritical phases)	358.1 ± 5.2
601.1 K, 4500 kPa, Fluid (supercritical or subcritical phases)	159.7 ± 4.9
602.47 K, 4000 kPa, Fluid (supercritical or subcritical phases)	114.3 ± 6.6
603.01 K, 5000 kPa, Fluid (supercritical or subcritical phases)	180.4 ± 4.5
603.24 K, 6000 kPa, Fluid (supercritical or subcritical phases)	226.2 ± 4.2
603.85 K, 8000 kPa, Fluid (supercritical or subcritical phases)	299 ± 4.8
604.21 K, 9000 kPa, Fluid (supercritical or subcritical phases)	324.3 ± 4.7
605.28 K, 3000 kPa, Fluid (supercritical or subcritical phases)	116.6 ± 4
605.73 K, 3500 kPa, Fluid (supercritical or subcritical phases)	94.8 ± 2.3
606.87 K, 4000 kPa, Fluid (supercritical or subcritical phases)	111.1 ± 5.5
607.11 K, 4500 kPa, Fluid (supercritical or subcritical phases)	144.8 ± 5.2
607.61 K, 5000 kPa, Fluid (supercritical or subcritical phases)	169.3 ± 4.4
607.97 K, 6000 kPa, Fluid (supercritical or subcritical phases)	215.3 ± 4.5
608.4 K, 7000 kPa, Fluid (supercritical or subcritical phases)	254.8 ± 4.4
608.86 K, 8000 kPa, Fluid (supercritical or subcritical phases)	285.3 ± 4.4
609.24 K, 9000 kPa, Fluid (supercritical or subcritical phases)	312.3 ± 4.6
609.54 K, 10000 kPa, Fluid (supercritical or subcritical phases)	340.1 ± 5
610.17 K, 3000 kPa, Fluid (supercritical or subcritical phases)	124.3 ± 3.7
610.28 K, 3500 kPa, Fluid (supercritical or subcritical phases)	103.2 ± 3.7
611.94 K, 4500 kPa, Fluid (supercritical or subcritical phases)	133.3 ± 4.3
612.5 K, 4000 kPa, Fluid (supercritical or subcritical phases)	108.7 ± 4
613.58 K, 5000 kPa, Fluid (supercritical or subcritical phases)	153.7 ± 4.5
613.8 K, 6000 kPa, Fluid (supercritical or subcritical phases)	204.8 ± 4.5
614.19 K, 7000 kPa, Fluid (supercritical or subcritical phases)	242.3 ± 4.2
614.65 K, 8000 kPa, Fluid (supercritical or subcritical phases)	273.2 ± 4.3
614.76 K, 3000 kPa, Fluid (supercritical or subcritical phases)	129.2 ± 3.3
614.83 K, 3500 kPa, Fluid (supercritical or subcritical phases)	111.5 ± 1.5
615.18 K, 9000 kPa, Fluid (supercritical or subcritical phases)	302 ± 4.6
616.02 K, 4500 kPa, Fluid (supercritical or subcritical phases)	128.5 ± 3.6
616.33 K, 5000 kPa, Fluid (supercritical or subcritical phases)	148.3 ± 3.9
617.46 K, 4000 kPa, Fluid (supercritical or subcritical phases)	110.4 ± 3.3
619.43 K, 3000 kPa, Fluid (supercritical or subcritical phases)	134.1 ± 3
619.62 K, 3500 kPa, Fluid (supercritical or subcritical phases)	119 ± 1.6
619.76 K, 4500 kPa, Fluid (supercritical or subcritical phases)	125.2 ± 2
620.31 K, 5000 kPa, Fluid (supercritical or subcritical phases)	144 ± 3.7
622 K, 4000 kPa, Fluid (supercritical or subcritical phases)	112.6 ± 2.7
623.42 K, 5000 kPa, Fluid (supercritical or subcritical phases)	141.6 ± 3.7
623.5 K, 6000 kPa, Fluid (supercritical or subcritical phases)	184.3 ± 4.1
623.84 K, 7000 kPa, Fluid (supercritical or subcritical phases)	224.1 ± 4.1
624.5 K, 8000 kPa, Fluid (supercritical or subcritical phases)	254.1 ± 4.1
624.55 K, 3500 kPa, Fluid (supercritical or subcritical phases)	124.9 ± 2.6
624.66 K, 4000 kPa, Fluid (supercritical or subcritical phases)	114.2 ± 1.5
624.87 K, 9000 kPa, Fluid (supercritical or subcritical phases)	283.1 ± 4.4
624.89 K, 3000 kPa, Fluid (supercritical or subcritical phases)	139.4 ± 2.9
625 K, 4500 kPa, Fluid (supercritical or subcritical phases)	125.1 ± 2.6
625.29 K, 5000 kPa, Fluid (supercritical or subcritical phases)	139.2 ± 3
628.69 K, 4000 kPa, Fluid (supercritical or subcritical phases)	120.4 ± 1.7
629.77 K, 5000 kPa, Fluid (supercritical or subcritical phases)	137.3 ± 2.5
629.96 K, 3500 kPa, Fluid (supercritical or subcritical phases)	132.1 ± 1.9
630.15 K, 3000 kPa, Fluid (supercritical or subcritical phases)	144.3 ± 2.7
630.45 K, 4500 kPa, Fluid (supercritical or subcritical phases)	126.6 ± 2.3
632.06 K, 4000 kPa, Fluid (supercritical or subcritical phases)	124.2 ± 1.7
633.13 K, 5000 kPa, Fluid (supercritical or subcritical phases)	137.6 ± 2.6
633.62 K, 6000 kPa, Fluid (supercritical or subcritical phases)	169.8 ± 3.5
633.94 K, 7000 kPa, Fluid (supercritical or subcritical phases)	204.8 ± 3.9
634.48 K, 8000 kPa, Fluid (supercritical or subcritical phases)	240.7 ± 4.3
635.95 K, 3000 kPa, Fluid (supercritical or subcritical phases)	149.3 ± 2.5
635.97 K, 3500 kPa, Fluid (supercritical or subcritical phases)	140 ± 2.3
636.07 K, 4000 kPa, Fluid (supercritical or subcritical phases)	131.6 ± 1.9
636.31 K, 4500 kPa, Fluid (supercritical or subcritical phases)	132 ± 1.7
637.58 K, 5000 kPa, Fluid (supercritical or subcritical phases)	140.4 ± 2.2
638.73 K, 3500 kPa, Fluid (supercritical or subcritical phases)	142.4 ± 2.1
638.9 K, 3000 kPa, Fluid (supercritical or subcritical phases)	152.4 ± 2.5
639.03 K, 4500 kPa, Fluid (supercritical or subcritical phases)	134.5 ± 1.8
642.09 K, 5000 kPa, Fluid (supercritical or subcritical phases)	144.1 ± 2
642.28 K, 6000 kPa, Fluid (supercritical or subcritical phases)	160.5 ± 2.9
642.66 K, 4000 kPa, Fluid (supercritical or subcritical phases)	142.7 ± 1.9
642.75 K, 7000 kPa, Fluid (supercritical or subcritical phases)	194.7 ± 3.8
643.16 K, 8000 kPa, Fluid (supercritical or subcritical phases)	229.4 ± 4.1
